In ChEMBL document CHEMBL1201862, “PubChem BioAssay data set” (2004):
Active and inactive are the calls of the source.

What was measured:
[1] = target: Glutathione-S-transferase (Schistosoma japonicum, UniProt Q26513); assay: GST-antibody interaction or FRET quenching – biochemical, TR-FRET, artefact control for Vif-APOBEC3G degradation inhibitor project, dose response (AID 1117362); assay type: functional
[2] = target: Beta-adrenergic receptor kinase 1 (Homo sapiens, UniProt P25098); assay: aptamer displacement from bead-bound GRK2 – biochemical, cherry pick 1, bead flow cytometry, dose response (AID 504500)
Chain of Beta-adrenergic receptor kinase 1 (P25098 whole entry): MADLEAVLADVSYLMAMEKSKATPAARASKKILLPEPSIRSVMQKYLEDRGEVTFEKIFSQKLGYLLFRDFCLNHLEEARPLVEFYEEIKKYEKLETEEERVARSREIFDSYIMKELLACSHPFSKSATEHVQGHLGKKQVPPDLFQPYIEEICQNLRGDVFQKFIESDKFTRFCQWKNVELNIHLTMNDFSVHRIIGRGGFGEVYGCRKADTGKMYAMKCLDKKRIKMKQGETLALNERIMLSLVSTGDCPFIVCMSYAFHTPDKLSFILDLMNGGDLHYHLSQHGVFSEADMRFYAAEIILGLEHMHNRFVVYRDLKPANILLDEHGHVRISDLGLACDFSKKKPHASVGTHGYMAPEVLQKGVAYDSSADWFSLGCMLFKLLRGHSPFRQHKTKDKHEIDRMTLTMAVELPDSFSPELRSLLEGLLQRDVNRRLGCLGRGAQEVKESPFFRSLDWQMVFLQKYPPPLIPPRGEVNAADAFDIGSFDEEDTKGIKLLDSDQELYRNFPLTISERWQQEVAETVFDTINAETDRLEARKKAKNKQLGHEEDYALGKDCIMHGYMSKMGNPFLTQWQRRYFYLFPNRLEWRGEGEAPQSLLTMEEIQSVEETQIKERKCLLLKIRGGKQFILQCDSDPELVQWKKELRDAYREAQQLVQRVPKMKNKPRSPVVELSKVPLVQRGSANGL

[3] = viability loss in HepG2 liver cells – cell-based, luminescence, dry powder, set 9, cytotoxicity control, dose response (AID 743358); assay type: functional
[4] = BioA aminotransferase inhibition, coupled fluorescent readout – biochemical, coupled fluorescence displacement, 20-point, dry powder, dose response (AID 743357); assay type: functional
[5] = Dd2 parasite growth inhibition in erythrocytes – SYBR Green, dry powder samples, set 9, dose response (AID 1159568); assay type: functional, cell-based
[6] = viability loss in Vero cells – cytotoxicity control for Vif-APOBEC3G degradation inhibitor project, dose response (AID 1117358); assay type: functional; settings: Vero
[7] = viability loss in MITF-independent A375 cells – cell-based, CellTiter-Glo luminescence, dry powder, set 6, counter-screen for MITF inhibitor project, dose response (AID 624488); assay type: functional; settings: A-375
[8] = cytotoxicity in melanoma parental cells – cell-based, CellTiter-Glo, dry powder, set 6, MITF inhibitor project, dose response (AID 624429); assay type: functional; settings: SK-MEL-5
[9] = growth inhibition of MALME3 cells – cell-based, CellTiter-Glo luminescence, dry powder, set 5, orthogonal assay for MITF inhibitor project, dose response (AID 651584); assay type: functional; settings: MALME-3
[10] = inhibitors of TRPM1-promoter reporter in SK-MEL-5 – cell-based, luciferase, dry powder, set 9, MITF inhibitor project, dose response (AID 651588); assay type: functional
[11] = MITF Measured in Cell-Based System Using Plate Reader - 2084-01_Inhibitor_Dose_DryPowder_Activity_Set6.; assay type: functional
[12] = viability loss in MITF-independent A375 cells – cell-based, CellTiter-Glo luminescence, dry powder, set 2, counter-screen for MITF inhibitor project, dose response (AID 624489); assay type: functional; settings: A-375;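 also: actives are compounds lowering A375 viability meaning general cytotoxicity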
[13] = MITF Orthogonal Assay: MALME3 CTG Assay Measured in Cell-Based System Using Plate Reader - 2084-04_Inhibitor_Dose_DryPowder_Activity_Set6.; assay type: functional; settings: MALME-3
[14] = viability loss in MITF-independent A375 cells – cell-based, CellTiter-Glo luminescence, dry powder, set 7, counter-screen for MITF inhibitor project, dose response (AID 624490); assay type: functional; settings: A-375
[15] = cytotoxicity in MITF-independent A375 cells – cell-based, CellTiter-Glo luminescence, dry powder, set 4, counter-screen for MITF inhibitor project, dose response (AID 624364); assay type: functional; settings: A-375;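 also: A375 melanoma cells are MITF independent so this is a counter screen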
[16] = MITF Measured in Cell-Based System Using Plate Reader - 2084-01_Inhibitor_Dose_DryPowder_Activity_Set7.; assay type: functional
[17] = cytotoxicity in MITF-independent A375 cells – cell-based, CellTiter-Glo luminescence, dry powder, set 9, counter-screen for MITF modulator project, dose response (AID 651591); assay type: functional; settings: A-375
[18] = MITF Orthogonal Assay: SK-MEL-5 CTG Assay Measured in Cell-Based System Using Plate Reader - 2084-02_Inhibitor_Dose_DryPowder_Activity_Set5.; assay type: functional
[19] = growth inhibition of SK-MEL-5 melanoma cells – cell-based, CellTiter-Glo luminescence, dry powder, set 8, orthogonal assay for MITF inhibitor project, dose response (AID 651586); assay type: functional

Chain of Glutathione-S-transferase (Q26513 whole entry): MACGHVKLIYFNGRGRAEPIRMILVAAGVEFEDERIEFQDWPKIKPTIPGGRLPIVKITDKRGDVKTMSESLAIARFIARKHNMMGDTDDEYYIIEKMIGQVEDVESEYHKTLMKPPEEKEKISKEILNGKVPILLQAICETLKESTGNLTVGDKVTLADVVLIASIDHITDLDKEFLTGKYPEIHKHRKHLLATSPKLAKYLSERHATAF

For `C=C(C)C(=O)Nc1cccc(C2=NOC3(C2)C[C@@H](C(N)=O)N(C(=O)c2cc([N+](=O)[O-])cc([N+](=O)[O-])c2)C3)c1` (some centres undefined), the IC50 [1] was > 100 µM (active) and the EC50 [2] was 10.6 µM (inactive).

With `CC(C)NC(=O)N1CC[C@@H]2[C@@H](CO)N(C)c3ccc(-c4cccc(F)c4)cc3[C@@H]21` the AC50 [3] was > 52 µM (inactive) and the AC50 [4] was 11.8 µM (active).

In the case of `COc1ccc2c3c([nH]c2c1)[C@H](CO)N(Cc1ccccc1)CC31CN(C(=O)c2ccccn2)C1`, the AC50 [5] is reported as 6.79 µM (active).

With `O=C(NCCc1ccc(Cl)cc1)C1CCN(C(=O)c2sccc2-n2cccc2)CC1` the CC50 [6] was > 40 µM (active).

With `CCN1CCN(C2=C(NC(=O)c3ccccc3)C(=O)c3ccccc3C2=O)CC1` the AC50 [7] was 15.8 µM (active), the AC50 [8] was 9.53 µM (active) and the AC50 [9] was 5.64 µM (active). The AC50 [10] was 1.72 µM (active), the AC50 [11] was 0.523 µM (active) and the AC50 [12] was 11.2 µM (active). For the same compound, the AC50 [13] was 5.64 µM (active), the AC50 [14] was 10.1 µM (active) and the AC50 [15] was 26.7 µM (active). The AC50 [16] was 0.729 µM (active), the AC50 [17] was 27.3 µM (active) and the AC50 [18] was 6.95 µM (active). For the same compound, the AC50 [19] was 9.73 µM (active).
